In the assay the target is T1, human TRPC5 (Homo sapiens, UniProt Q9UL62).
T1 construct: expressed in transfected cells; host or cells: HEK 293
T1 sequence (Q9UL62 1-973): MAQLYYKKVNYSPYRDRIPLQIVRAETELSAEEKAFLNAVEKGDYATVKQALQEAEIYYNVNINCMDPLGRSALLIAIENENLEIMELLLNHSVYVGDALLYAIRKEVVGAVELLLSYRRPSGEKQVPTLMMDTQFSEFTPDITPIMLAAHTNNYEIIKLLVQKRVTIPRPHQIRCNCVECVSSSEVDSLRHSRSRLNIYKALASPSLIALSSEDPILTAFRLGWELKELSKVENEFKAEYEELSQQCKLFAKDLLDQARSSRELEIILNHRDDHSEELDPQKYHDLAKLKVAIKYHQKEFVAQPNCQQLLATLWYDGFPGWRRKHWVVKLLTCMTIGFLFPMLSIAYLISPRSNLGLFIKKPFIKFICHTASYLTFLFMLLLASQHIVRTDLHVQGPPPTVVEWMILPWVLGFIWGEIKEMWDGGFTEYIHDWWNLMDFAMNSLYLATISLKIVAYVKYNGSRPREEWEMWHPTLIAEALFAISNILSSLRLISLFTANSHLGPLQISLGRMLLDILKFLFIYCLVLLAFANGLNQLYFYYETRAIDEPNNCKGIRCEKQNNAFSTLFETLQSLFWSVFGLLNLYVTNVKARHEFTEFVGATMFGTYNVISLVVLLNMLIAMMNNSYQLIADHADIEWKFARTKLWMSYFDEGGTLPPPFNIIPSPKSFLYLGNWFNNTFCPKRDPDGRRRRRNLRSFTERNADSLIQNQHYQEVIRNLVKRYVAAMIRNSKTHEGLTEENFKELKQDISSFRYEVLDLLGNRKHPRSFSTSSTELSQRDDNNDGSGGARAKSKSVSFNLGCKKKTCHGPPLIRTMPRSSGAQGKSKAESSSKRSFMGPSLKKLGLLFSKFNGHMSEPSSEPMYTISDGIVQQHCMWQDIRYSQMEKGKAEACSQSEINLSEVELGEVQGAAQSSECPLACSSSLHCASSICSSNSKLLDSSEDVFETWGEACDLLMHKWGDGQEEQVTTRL
Briefly: Automated patch clamp assay (QPatch), current block after stimulation with rosiglitazone. It is filed as cell-based. To be noted: HEK293 cells overexpressing TRPC5, whole cell automated patch, 100 mV, 7-substituted 7-azaindoles, read-out: TRPC5 IC50 100 mV. On the procedure: HEK 293 cells expressing human TRPC5 were harvested, re-suspended in serum free medium, and added to the automated platform and used within 2-3 hours. Internal and external physiological solutions were freshly prepared prior to the assay. The external solution contained: 145 mM NaCl, 4 mM KCl, 2 mM CaCl2), 1 mM MgCl2, 10 mM HEPES, 10 mM glucose, pH 7.4 with NaOH and 300 mOsm/L. The internal solution contained 120 mM L-aspartic acid, 120 mM CsOH.H2O, 20 mM CsCl, 2 mM MgCl2, 8.8 mM CaCl2), 10 mM EGTA, 10 mM HEPES, 10 mM Glucose, 0.1 mM GTP and 2 mM Na2ATP; pH 7.2 with CsOH and 290 mOsm/L. The free internal Ca2+ concentration was buffered to 1 μM.
The automated electrophysiological platform QPatch 16 from Sophion (Denmark) was used to carry out the compounds profiling. The series resistance and quality of seals were continuously monitored during the experiments. Data was analyzed using Sophion QPatch assay software 5.6 (Odense). IC50 values were calculated using a least squares regression algorithm (Hill equation).
To monitor the ion currents, a voltage ramp from −100 mV to +100 mV, over 300 ms, was applied every 10 seconds, from a holding potential of −60 mV.
After recording for a minimum of 60 seconds control period, Rosiglitazone (30 uM), was applied to activate the channel.
Background: In patch-clamp work, channel activity is measured electrically.

As a reminder, the IC50 is the concentration at which inhibition is half-maximal.

With `CC(C)(C)c1cc2cccn(Cc3cccnc3)c-2n1` [drawing 134], the IC50 was found to be 14.4 µM.
With `CC(C)(C)c1cc2cccn(C[C@H]3CC[C@H](C)CC3)c-2n1` [drawing 137], the IC50 turned out to be 22.2 µM.
With `CC(C)(C)c1cc2cccn(C[C@H]3CC[C@H](C)CC3)c-2n1` [drawing 138] the figure was 24.5 µM.

For the origin of these results see patent US20210115036A1, “AZAINDOLES AND METHODS OF USE THEREOF” (GOLDFINCH BIO, INC., priority 2017, published 2021).
